Measurements: patent US9416162B2, “Peptides having reduced toxicity that stimulate cholesterol efflux” (The Regents of the University of California, priority 2013, dated 2016)
Blank lines part the entries; values can stand above or below the compound they belong to. Non-standard residues stand in square brackets, D forms with d. Residues, ends and D or L forms follow the SMILES beside them. No end group written: not given here. Cit = NC(=O)NCCC[C@H](N)C(=O)O

What was measured:
[1] = Scaled Parameters = (Raw Parameters + 2.061)/4.484; cited from earlier work
[2] = tested on: C57Bl/6 mice; assay: Safety and TG elevating effects after IP injection in C57Bl/6 mice (plasma CPK, ALT, AST, lipids); type: in vivo; details: for muscle toxicity (plasma CPK activity) / cytotoxic/toxic response (plasma CPK, ALT, AST): plasma 4 h after injection
Experimental: The high-dose cytotoxic response of ATI-5261 observed in rat, rabbit and cynomolgus monkey is additionally recapitulated in mice (FIG. 4). Male chow-fed C57bl/6 mice were injected intraperitonelly (IP) with 30 or 300 mg/kg of lipid-fee ATI-5261. Blood was collected via the retro-orbital plexus 4 h after peptide injection and plasma subsequently obtained for measurement of CPK (Panel A) and ALT and AST activities (Panel B, ALT left bars; AST, right bars). Values are means±SD, n=4 mice per group.
This example illustrates that aromatic phenylalanine residues associated with the non-polar surface of ATI-5261 contributed to the majority of the peptide toxicity (FIG. 5). […] Blood was collected via retro-orbital plexus 4 h after injection for isolation of plasma. Levels of plasma CPK (Panel A), ALT (panel B) and AST (Panel C) were determined as described in FIG. 1. Values are means±SD, n=4 mice per group.
All values (mg/dl) are means±SD, n=4, determined at 4 and 6 h post treatment with peptide.

[3] = target: T1, ABCA1 (Mus musculus, UniProt P41233); assay: ABCA1-dependent [3H]cholesterol efflux from J774 macrophages with and without cAMP; type: cell-based; details: cAMP treated J774 cells; for efficiency of stimulating cholesterol efflux (concentration dependence): dose response; for Km for cholesterol efflux / peptide concentration at saturation in cholesterol efflux: increasing concentration of peptides, 4 h
T1 construct: treated (18 h) with a cAMP analog to induce ABCA1 protein expression; endogenous in cells; host or cells: J774 macrophages
T1 sequence (P41233 whole entry): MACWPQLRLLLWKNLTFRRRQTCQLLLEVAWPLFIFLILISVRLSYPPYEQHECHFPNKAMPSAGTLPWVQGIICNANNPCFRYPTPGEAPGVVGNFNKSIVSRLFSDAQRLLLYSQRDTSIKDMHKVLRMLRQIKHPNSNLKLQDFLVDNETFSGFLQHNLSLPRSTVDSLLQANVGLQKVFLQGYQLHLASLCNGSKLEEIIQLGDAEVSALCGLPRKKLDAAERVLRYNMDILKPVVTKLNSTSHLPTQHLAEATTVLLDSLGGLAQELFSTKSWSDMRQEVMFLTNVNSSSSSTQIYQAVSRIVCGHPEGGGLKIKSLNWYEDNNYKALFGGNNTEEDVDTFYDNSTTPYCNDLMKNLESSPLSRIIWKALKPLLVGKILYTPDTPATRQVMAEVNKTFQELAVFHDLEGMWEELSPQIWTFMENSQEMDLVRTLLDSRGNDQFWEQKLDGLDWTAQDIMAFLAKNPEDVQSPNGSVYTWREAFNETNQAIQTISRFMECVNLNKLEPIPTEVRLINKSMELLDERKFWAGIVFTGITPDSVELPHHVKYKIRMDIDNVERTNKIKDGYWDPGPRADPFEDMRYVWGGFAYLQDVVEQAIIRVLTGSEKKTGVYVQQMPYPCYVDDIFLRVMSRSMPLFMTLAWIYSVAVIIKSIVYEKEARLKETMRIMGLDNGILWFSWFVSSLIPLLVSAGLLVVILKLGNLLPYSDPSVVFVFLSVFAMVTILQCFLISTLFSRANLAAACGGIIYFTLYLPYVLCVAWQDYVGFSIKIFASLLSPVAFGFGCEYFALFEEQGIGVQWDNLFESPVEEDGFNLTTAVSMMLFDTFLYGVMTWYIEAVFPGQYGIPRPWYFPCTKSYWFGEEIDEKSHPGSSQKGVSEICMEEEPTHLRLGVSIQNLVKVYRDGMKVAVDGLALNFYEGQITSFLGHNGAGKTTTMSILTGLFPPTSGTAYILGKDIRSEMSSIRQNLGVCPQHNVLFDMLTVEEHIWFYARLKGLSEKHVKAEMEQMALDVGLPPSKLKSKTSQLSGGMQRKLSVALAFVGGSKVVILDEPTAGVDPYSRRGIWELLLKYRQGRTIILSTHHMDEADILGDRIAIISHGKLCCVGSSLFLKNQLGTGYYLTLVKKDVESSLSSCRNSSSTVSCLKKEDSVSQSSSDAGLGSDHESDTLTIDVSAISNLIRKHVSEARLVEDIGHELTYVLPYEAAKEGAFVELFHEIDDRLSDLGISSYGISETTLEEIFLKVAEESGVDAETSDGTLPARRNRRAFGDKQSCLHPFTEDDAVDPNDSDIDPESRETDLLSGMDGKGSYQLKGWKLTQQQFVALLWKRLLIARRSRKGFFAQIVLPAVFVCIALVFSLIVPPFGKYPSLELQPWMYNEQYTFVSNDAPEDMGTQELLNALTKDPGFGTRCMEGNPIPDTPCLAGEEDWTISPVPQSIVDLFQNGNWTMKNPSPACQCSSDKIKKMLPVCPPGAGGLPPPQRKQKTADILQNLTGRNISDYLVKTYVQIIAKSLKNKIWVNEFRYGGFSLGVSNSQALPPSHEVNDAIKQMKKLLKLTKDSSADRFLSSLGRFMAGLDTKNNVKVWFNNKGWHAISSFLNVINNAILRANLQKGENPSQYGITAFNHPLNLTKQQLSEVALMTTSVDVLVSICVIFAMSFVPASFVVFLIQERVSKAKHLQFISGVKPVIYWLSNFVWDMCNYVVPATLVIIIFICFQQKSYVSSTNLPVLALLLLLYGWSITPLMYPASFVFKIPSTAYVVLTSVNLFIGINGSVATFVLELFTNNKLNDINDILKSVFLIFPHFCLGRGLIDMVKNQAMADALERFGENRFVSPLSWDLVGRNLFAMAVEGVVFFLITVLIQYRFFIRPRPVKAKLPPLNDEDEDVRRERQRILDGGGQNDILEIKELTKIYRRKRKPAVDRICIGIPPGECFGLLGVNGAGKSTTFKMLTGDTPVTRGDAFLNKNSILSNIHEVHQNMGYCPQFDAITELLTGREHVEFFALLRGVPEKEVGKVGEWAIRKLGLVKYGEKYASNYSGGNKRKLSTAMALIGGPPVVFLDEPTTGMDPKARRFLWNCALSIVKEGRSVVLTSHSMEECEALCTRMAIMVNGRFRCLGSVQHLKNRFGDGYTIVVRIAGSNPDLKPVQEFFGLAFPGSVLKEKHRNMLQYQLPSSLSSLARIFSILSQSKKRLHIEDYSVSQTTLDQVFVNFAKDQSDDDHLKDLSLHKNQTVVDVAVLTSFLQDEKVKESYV
Excerpt: Suitable cholesterol efflux assays are described in, e.g., Bielicki, J. K and Oda, M. N., Biochemistry, 41:2089-2096 (2002); Jia et al., Biochem. Biophys. Res. Common., 297:206-213 (2002). In some embodiments, a polypeptide known to mediate cholesterol efflux (e.g., helix 9/10 of Apo A-I) is used to screen for additional mediators of cholesterol efflux in a cell based assay. For example, cell lines in which cholesterol efflux can be enhanced using a cAMP analog that up-regulates ABCA1 protein expression (e.g., J774 macrophages) can conveniently be used to assess the ability of a polypeptide of the present invention to mediate cholesterol efflux. The cells are incubated with labeled cholesterol (e.g., [^3H]cholesterol) under conditions appropriate for cholesterol uptake by the cells. Thus, cAMP or cAMP analogs (e.g., CPT-cAMP) are incubated with the cells for a suitable time before the initiation of cellular cholesterol efflux, i.e., prior to contacting the cells with a test polypeptide. Measurement of labeled cholesterol appearing in the medium is used to determine the cholesterol efflux mediating activity of the test polypeptide.
Aliphatic analogs of ATI-5261 lacking phenylalanine residues retained potent ABCA1 selective cholesterol efflux activity (FIG. 7). J774 macrophages were labeled (48 h) with [^3H]cholesterol and treated (18 h) with a cAMP analog to induce ABCA1 protein expression; cells incubated in the absence of cAMP (left bars) served as controls. […] Peptides were used at a concentration of 30 μg/ml, which was maximal for promoting cholesterol efflux activity. Panel B—Dependence of cholesterol efflux on the concentration of peptides. […] Results are expressed as the difference in cholesterol efflux (%/4 h) observed using cAMP treated vs. non-treated J774 cells. Values are means±SD, n=3.

[4] = target: T1, ABCA1; assay: as above; type: cell-based; design: ABCA1-dependent cholesterol efflux: dose or concentration left out as unconfirmed; details: for ABCA1-dependent cholesterol efflux: J774 with/without cAMP, acceptors lipid-free, 4 h
[5] = male chow-fed C57Bl/6 mice, IP 300 mg/kg

Compound: C[C@H](N)C(=O)O [Alanine]
Hydrophobicity (scaled computational log(P)) [1]: 0.616

Compound: N=C(N)NCCC[C@H](N)C(=O)O [Arginine]
Hydrophobicity (scaled computational log(P)) [1]: 0.000

Compound: NC(=O)C[C@H](N)C(=O)O [Asparagine]
Hydrophobicity (scaled computational log(P)) [1]: 0.236

Compound: N[C@@H](CCC(=O)O)C(=O)O [Glutamate]
Hydrophobicity (scaled computational log(P)) [1]: 0.043

Compound: NCC(=O)O [Glycine]
Hydrophobicity (scaled computational log(P)) [1]: 0.501

Compound: N[C@@H](Cc1c[nH]cn1)C(=O)O [Histidine]
Hydrophobicity (scaled computational log(P)) [1]: 0.165

Compound: CC[C@H](C)[C@H](N)C(=O)O [Isoleucine]
Hydrophobicity (scaled computational log(P)) [1]: 0.943

Compound: NCCCC[C@H](N)C(=O)O [Lysine]
Hydrophobicity (scaled computational log(P)) [1]: 0.283

Compound: CSCC[C@H](N)C(=O)O [Methionine]
Hydrophobicity (scaled computational log(P)) [1]: 0.738

Compound: N[C@@H](Cc1ccccc1)C(=O)O [Phenylalanine]
Hydrophobicity (scaled computational log(P)) [1]: 1.00

Compound: O=C(O)[C@@H]1CCCN1 [Proline]
Hydrophobicity (scaled computational log(P)) [1]: 0.711

Compound: CC[C@H](C)[C@H](NC(=O)[C@H](C)NC(=O)[C@H](C)NC(=O)[C@@H](NC(=O)[C@H](Cc1c[nH]c2ccccc12)NC(=O)[C@H](CCC(=O)O)NC(=O)[C@H](CCC(=O)O)NC(=O)[C@H](CC(C)C)NC(=O)[C@H](CCCCN)NC(=O)[C@H](CO)NC(=O)[C@H](CCCNC(N)=O)NC(=O)[C@@H](NC(=O)[C@@H](N)CCC(=O)O)C(C)C)[C@@H](C)CC)C(=O)N[C@@H](CCCNC(N)=O)C(=O)N[C@@H](CCC(=O)O)C(=O)N[C@H](C(=O)N[C@@H](C)C(=O)N[C@@H](CCC(=O)O)C(=O)N[C@@H](CCC(=O)O)C(=O)N[C@H](C(=O)N[C@@H](CC(C)C)C(=O)N[C@@H](C)C(=O)N[C@@H](CCCNC(=N)N)C(=O)N[C@@H](CC(C)C)C(=O)N[C@@H](CCCCN)C(=O)N[C@@H](CO)C(=O)O)[C@@H](C)CC)[C@@H](C)CC [T6991-2, EVC*SKLEEWIAAIC*EIAEEILARLKS (SEQ ID NO:3)] (H-EV[Cit]SKLEEWIAAI[Cit]EIAEEILARLKS-OH)
muscle toxicity (plasma CPK activity) [2, 5]: little or no cytotoxic properties

Compound: C[C@@H](O)[C@H](N)C(=O)O [Threonine]
Hydrophobicity (scaled computational log(P)) [1]: 0.450

Compound: N[C@@H](Cc1c[nH]c2ccccc12)C(=O)O [Tryptophan]
Hydrophobicity (scaled computational log(P)) [1]: 0.878

Compound: N[C@@H](Cc1ccc(O)cc1)C(=O)O [Tyrosine]
Hydrophobicity (scaled computational log(P)) [1]: 0.880

Compound: CC(C)[C@H](N)C(=O)O [Valine]
Hydrophobicity (scaled computational log(P)) [1]: 0.825

Compound: EARSKAEEWLAALLELAEELLARAKS [T5211-2]
cytotoxic/toxic response (plasma CPK, ALT, AST) [2, 5]: little or no toxic responses

Compound: EARSKAEEWLAALRELAEELLARAKS [T5505-12]
TG elevating effects (plasma TG) [2, 5]: greatly ablated
cytotoxic/toxic response (plasma CPK, ALT, AST) [2, 5]: low toxicity

Compound: EVKSKLEEWFAAFKEFAEEFLAKLKS [T5594-5]
cytotoxic/toxic response (plasma CPK, ALT, AST) [2, 5]: displayed cytotoxic and TG elevating activity

Compound: EVNSKLEEWLAALNELAEELLARLKS [T5766-4]
muscle toxicity (plasma CPK activity) [2, 5]: greatly reduced

Compound: EVQSKLEEWLAALQELAEELLARLKS [T5766-3]
muscle toxicity (plasma CPK activity) [2, 5]: greatly reduced

Compound: EVRSKLEEWFAAFREFAEEFLARL [T5766-5]
cytotoxic/toxic response (plasma CPK, ALT, AST) [2, 5]: reduce the toxic responses
muscle toxicity (plasma CPK activity) [2, 5]: greatly reduced muscle toxicity

Compound: EVRSKLEEWFAAFREFAEEFLARLNS [T5594-4]
muscle toxicity (plasma CPK activity) [2, 5]: greatly reduced muscle toxicity

Compound: EVRSKLEEWIAAIREIAEEILARLKS [T6991-1]
muscle toxicity (plasma CPK activity) [2, 5]: little or no cytotoxic properties

Compound: EVRSKLEEWLAALRELAEELAARLKS [T4883-7]
TG elevating effects (plasma TG) [2, 5]: further reduced
cytotoxic/toxic response (plasma CPK, ALT, AST) [2, 5]: further reduced cytotoxic response
muscle toxicity (plasma CPK activity) [2, 5]: eliminate the residual muscle toxicity

Compound: EVRSKLEEWLAALRELAEELLARAKS [T4883-6]
TG elevating effects (plasma TG) [2, 5]: further reduced
cytotoxic/toxic response (plasma CPK, ALT, AST) [2, 5]: further reduced cytotoxic response
muscle toxicity (plasma CPK activity) [2, 5]: eliminate the residual muscle toxicity

Compound: EVRSKLEEWLAALRELAEELLARLKS [T5055-13]
plasma TG, total and unesterified (free) cholesterol (FC) ([2]; C57Bl/6 mice, 300 mg/kg, 4 and 6 h post treatment): greatly attenuated
muscle toxicity (plasma CPK activity) [2, 5]: residual toxicity

Compound: EVRSKLQEWFAAFREFAQEFLARLKS [T5554-1]
cytotoxic/toxic response (plasma CPK, ALT, AST) [2, 5]: large increase in the toxic response

Compound: T5505-9: ATI-5261 analog with L24A; W9L substitutions (EVRSKLEELLAALRELAEELLARAKS; synthetic amphipathic alpha-helix cholesterol efflux peptide T5505-9, LeuATI-5261 analog)
efficiency of stimulating cholesterol efflux (concentration dependence) [3]: high efficiency
Km for cholesterol efflux [3]: 0.58 µg/mL
peptide concentration at saturation in cholesterol efflux [3]: ~3 µg/mL
TG elevating effects (plasma TG) [2, 5]: markedly reduced
plasma ALT and/or AST (general, hepatic toxicity) [2, 5]: markedly reduced
muscle toxicity (plasma CPK activity) [2, 5]: markedly reduced

Compound: T5554-4: E→Q analog carrying the favorable citrulline substitutions (EV[Cit]SKLQEWFAAFREFAEEFLARLKS)
cytotoxic/toxic response (plasma CPK, ALT, AST) [2, 5]: retained strong toxic (CPK, ALT, and AST) and TG elevating responses

Compound: T5554-5: E→Q analog carrying the favorable citrulline substitutions, net-charge −1 (EV[Cit]SKLQEWFAAF[Cit]EFAQEFLARLKS)
cytotoxic/toxic response (plasma CPK, ALT, AST) [2, 5]: retained strong toxic (CPK, ALT, and AST) and TG elevating responses

efficiency of stimulating cholesterol efflux (concentration dependence) [3]: highly efficient manner
Km for cholesterol efflux [3]: low Km
peptide concentration at saturation in cholesterol efflux [3]: 3 µg/mL
Compound: T6275-5: citrulline form of LeuATI-5261 with single citrulline14→L substitution (EV[Cit]SKLEEWLAALLELAEELLARLKS)

Compound: Y26 form of CS6253: CS6253 with a S26→Y substitution to facilitate labeling with 125I (SEQ ID NO:87) (EV[Cit]SKLEEWLAAL[Cit]ELAEELLARLKY)
ABCA1-dependent cholesterol efflux activity ([4]; J774 macrophages with/without cAMP, peptide 10 μg/ml): mediating high-levels of cholesterol efflux

ABCA1-dependent cholesterol efflux [4]: High-levels of cholesterol efflux
Compound: apoA-I: Apolipoprotein A-I, native apolipoprotein used lipid-free as cholesterol efflux acceptor

ABCA1-dependent cholesterol efflux [4]: High-levels of cholesterol efflux
Compound: apoE: Apolipoprotein E, native apolipoprotein used lipid-free as cholesterol efflux acceptor
